One test has as its system 3T3-L1 adipocytes. The test is described as follows: IP-one assay (ELISA) in 3T3-L1 adipocytes. Type of test: cell-based, mouse. The note with it: 50 μM azelaic acid, 18 hours. As for the experimental part: Therefore, changes in concentrations of cAMP, IP-one (metabolite of IP3), and calcium, which are second messengers by azelaic acid corresponding to the Olfr544 ligand, in 3T3-L1 adipocytes were measured. Since IP3 has low stability to thereby be easily decomposed to IP-one, an amount of intracellular IP-One (metabolite of IP3) was quantified instead of IP3.
IP-one assay is a method of measuring a concentration of IP3 corresponding to a second messenger formed by phospholipolysis by phospholipase in a GPCR signal transduction process to measure an ability to regulate protein kinase C (PKC) signal transduction. In the present experiment, 1×10^4 3T3-L1 adipocytes were seeded in each well of the 96-well plate and differentiated, and then treated with 50 μM azelaic acid for 18 hours. Then, in order to measure IP3, the concentration of intracellular IP-one (metabolite of IP3, a surrogate marker) of which an error was small was measured using an IP-one ELISA Assay kit (Cisbio, France).

For the next test, the system named is protein kinase A (PKA). Kind of test: PKA kinase activity in 3T3-L1 adipocytes. It counts as cell-based, mouse. The settings on record: azelaic acid 50 μM, 2 hours. An excerpt:
A representative protein regulating protein activities associated with signal transduction depending on a change in concentration of intracellular cAMP in the tissue cells is protein kinase A (PKA). Under general conditions, since an enzyme active site is blocked by a regulatory domain site of protein, a PKA activity is suppressed, but when the concentration of cAMP is increased, cAMP is bound to a regulatory site of PKA to expose an active site, such that the PKA activity is increased. In the present experiment, a change in PKA activity by azelaic acid was measured. The PKA activity was measured using an Enzo PKA kinase activity kit (Cat. #ADI-EKS-390A, Enzo Life Sciences, Korea).

Test [1] deals with hAMSC cells. Kind of test: Treatment of human adipocyte line hAMSC with azelaic acid. It counts as cell-based. The settings on record: azelaic acid 50 μM. The protocol: The anti-obesity effect was confirmed by treating a human adipocyte line, namely hAMSC cells (Cell Bio, CEFO, Seoul Korea), with azelaic acid (50 μM).
The target in test [2] is T1, OR2K2 (Homo sapiens, UniProt Q8NGT1, D270A).
T1 construct: expressed in transfected cells; host or cells: Hana3A
T1 sequence (Q8NGT1 1-316 D270A): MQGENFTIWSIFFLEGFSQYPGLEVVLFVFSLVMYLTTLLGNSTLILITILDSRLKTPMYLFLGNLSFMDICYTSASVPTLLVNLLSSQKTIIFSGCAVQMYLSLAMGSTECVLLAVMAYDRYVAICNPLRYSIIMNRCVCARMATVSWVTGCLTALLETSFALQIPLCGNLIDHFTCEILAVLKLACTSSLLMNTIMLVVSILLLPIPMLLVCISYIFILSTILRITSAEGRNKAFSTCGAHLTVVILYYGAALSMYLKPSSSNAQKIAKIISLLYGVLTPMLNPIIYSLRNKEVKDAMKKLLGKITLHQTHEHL
Kind of test: Luciferase assay of OR2K2 mutants transfected into Hana3A cells. It counts as cell-based. The settings on record: OR2K2 D270A mutant in Hana3A cells. The source says: (§1) In order to confirm the binding site of the olfactory receptor OR2K2 protein that binds to azelaic acid, among amino acids, Y120, which is a tyrosine (Y) residue, E159, which is a glutamate (E) residue, and D270, which is an aspartate (D) residue, were predicted through in-silico modeling, and the corresponding position of the predicted amino acid residue was subjected to site-directed mutagenesis to obtain a mutant. For negative controls, Y120A, E159A, and D270A mutants in which all three amino acid residues were replaced with alanine were used. For positive controls, Y120F, E159D, and D270E mutants, including Y120F replaced with phenylalanine (F) for Y120, E159D replaced with aspartate for E159, and D270E replaced with glutamate for D270, were used.
(§2) The cDNA clone including the sequence of each OR2K2 mutant for measuring the binding affinity of azelaic acid was transfected into Hana3A cells, and a luciferase assay was performed. […] This is deemed to be because azelaic acid binds to OR2K2 by reacting the E159 and D270 moieties of OR2K2 with both carboxyl groups of azelaic acid.

The target in test [3] is T2, OR2K2 (Homo sapiens, UniProt Q8NGT1, E159A).
T2 construct: expressed in transfected cells; host or cells: Hana3A
T2 sequence (Q8NGT1 1-316 E159A): T1 sequence (Q8NGT1 1-316 D270A) with E159A, A270D
The test is described as above. Type of test: cell-based. The settings on record: OR2K2 E159A mutant in Hana3A cells.
Excerpt: as §1, §2

For test [4], the system named is OR2K2. The test is described as above. The settings on record: OR2K2 with both D270 and E159 mutated, Hana3A cells. Type of test: cell-based, human.
Excerpt: as §1, §2

Test [5] concerns hAMSC cells. Kind of test: qPCR of anti-obesity gene in hAMSC cells, with OR2K2 knock-down. Type of test: cell-based, human. As for the experimental part: In-vitro equivalence confirmation: HepG2 cells, which are a human liver tissue cell line, and hAMSC cells, which are a human adipocyte line, were treated with azelaic acid and the anti-obesity gene was measured through a qPCR method.
On the technique in general: Real-time PCR tracks product formation cycle by cycle.

A short description of test [6]: Dose evaluation experiment, oral administration, body weight control. Type of test: in vivo. The settings on record: 6 mg/kg of azelaic acid, 6 weeks. As for the experimental part: Azelaic acid was orally administered for 6 weeks, and the body weight control effects of three doses (6, 17, 20 mg/kg) were compared. The commercially available anti-obesity drugs Xenical and Panbesy were used as positive controls. […] Similar results were also obtained when a secondary experiment was performed to confirm the results.

The subject of a further test is C57BL/6 mice. Kind of test: Subcutaneous injection in high-fat diet fed male C57BL/6 mice. Type of test: in vivo, mouse. The settings on record: high-fat diet male C57BL/6 mice, 50 mg/kg subcutaneously, 3.5 weeks. The protocol:
After 4 weeks of high-fat diet feeding in male C57BL/6 mice (7-8 per group), 50 mg/kg of azelaic acid was administered subcutaneously for 3.5 weeks, and Saxenda, which is used as an anti-obesity drug, was administered as a positive control.

Changes are numbered by the printed parent chain.

In the case of `O=C(O)CCCCCCCC(=O)O` [azelaic acid, nonanedioic acid], the “concentration of IP3 (IP-one)” value in the test on 3T3-L1 adipocytes was “did not affect”. The “PKA activity increased as compared to a control” value with protein kinase A (PKA) amounted to 113.8%. Further, in the test with hAMSC cells [1], the cAMP-PKA signaling result is listed as “activated”, the calcium concentration entry was “no change”, the “inositol phosphate (IP) concentration” value is “no change” and the release of glycerol entry is “promoted”. In addition, the “activity of azelaic acid (luciferase)” value on OR2K2 [2] is “statistically significantly decreased”. On OR2K2 [3], the “activity of azelaic acid (luciferase)” value is listed as “statistically significantly decreased”. Besides, the “azelaic acid reaction (luciferase)” value with OR2K2 [4] is “statistically significantly reduced”. Also, the “expression of a triglyceride hydrolysis gene (qPCR)” value in the test on hAMSC cells [5] (adipocytes (hAMSC) treated with azelaic acid) is “increased”. Further, the “effect on gene expression when the OR2K2 gene was knocked down” value in the test on hAMSC cells [5] (human adipocyte line (hAMSC)) was “disappear”. The body weight entry in [6] is given as “Significant body weight reduction efficacy”. For the same compound, in the test on C57BL/6 mice, the body weight result was “reduced body weight” and the subcutaneous fat result was “reducing subcutaneous fat”.

Values taken from patent publication US20220249415A1, “COMPOSITION OF AZELAIC ACID HAVING ADIPOSE TRIGLYCERIDE HYDROLYSIS EFFECT” (Korea University Research and Business Foundation, priority 2018, published 2022).
